Structures are written as SMILES. Several values for one entry are separate records, joined by “and”; a condition that tells them apart may be missing. Equal entries are not always repeated.

The record followed here is paper PMC6104039 (Nature Communications, 2018).

The experiment concerns HEK293 cells. Nature of the experiment: Endogenous ceramide, HexCer and SM levels in cells treated 24 h, targeted LC-MS/MS. It is filed as cell-based. Particulars: HEK293 cells, 24 h. Here is the method:
Lipids were then extracted using MTBE/methanol/water as described above.
HEK293 cell culture experiment: Levels of each lipid in P053-treated HEK293 cells were normalised to the mean of the vehicle control group, and each concentration was compared to the control using ANOVA with Dunnett’s post-test. P values were adjusted for multiple comparisons in GraphPad PRISM.
Supplementary Figure 1. Ceramide, SM, and HexCer levels in HEK293 cells treated with
P053. Absolute lipid levels were determined by targeted LC-MS/MS, relative to external
standard curves. Results are mean ± SEM (n = 4) from one of two identical experiments.
Statistically significant results, based on two independent experiments, are as indicated in
Figure 2b-d. Raw data for these figures is provided in Supplementary Data File 1.

As for `C[C@@](N)(CO)CCc1ccc(OCc2ccc(Cl)c(Cl)c2)cc1` [P053, (S)-2-amino-4-(4-(3,4-dichlorobenzyloxy)phenyl)-2-methylbutan-1-ol], for the setting “P053 100 nM”, the “16:0 Cer level” value is 93.0789 percentage of the vehicle control group and 87.8624 percentage of the vehicle control group and 90.7567 percentage of the vehicle control group and 99.4946 percentage of the vehicle control group and 119.082 percentage of the vehicle control group and 99.8119 percentage of the vehicle control group and 116.788 percentage of the vehicle control group and 98.8463 percentage of the vehicle control group; the “16:0 HexCer level” value was 72.1291 percentage of the vehicle control group and 81.3101 percentage of the vehicle control group and 75.1757 percentage of the vehicle control group and 88.1626 percentage of the vehicle control group and 92.7296 percentage of the vehicle control group and 94.3662 percentage of the vehicle control group and 88.291 percentage of the vehicle control group and 103.879 percentage of the vehicle control group; the “16:0 SM level” value is 96.6683 percentage of the vehicle control group and 97.496 percentage of the vehicle control group and 96.0726 percentage of the vehicle control group and 98.7215 percentage of the vehicle control group and 93.8292 percentage of the vehicle control group and 95.9275 percentage of the vehicle control group and 94.8581 percentage of the vehicle control group and 102.543 percentage of the vehicle control group; the “16:1 SM level” value is 104.314 percentage of the vehicle control group and 87.7756 percentage of the vehicle control group and 92.2071 percentage of the vehicle control group and 111.506 percentage of the vehicle control group and 103.607 percentage of the vehicle control group and 109.147 percentage of the vehicle control group and 99.9145 percentage of the vehicle control group and 113.03 percentage of the vehicle control group. In addition, where the note is “P053 100 nM”, the “18:0 Cer level” value is 51.8361 percentage of the vehicle control group and 34.0436 percentage of the vehicle control group and 43.3209 percentage of the vehicle control group and 47.0876 percentage of the vehicle control group and 49.1716 percentage of the vehicle control group and 60.878 percentage of the vehicle control group and 53.1013 percentage of the vehicle control group and 34.6023 percentage of the vehicle control group; the “18:0 HexCer level” value was 26.076 percentage of the vehicle control group and 45.6733 percentage of the vehicle control group and 33.7976 percentage of the vehicle control group and 35.7543 percentage of the vehicle control group and 29.3831 percentage of the vehicle control group and 38.4787 percentage of the vehicle control group and 45.094 percentage of the vehicle control group and 48.7 percentage of the vehicle control group; the “18:0 SM level” value is 58.3863 percentage of the vehicle control group and 60.4391 percentage of the vehicle control group and 60.0968 percentage of the vehicle control group and 58.0444 percentage of the vehicle control group and 61.8417 percentage of the vehicle control group and 67.9073 percentage of the vehicle control group and 68.1366 percentage of the vehicle control group and 74.9383 percentage of the vehicle control group; the “18:1 SM level” value was 67.1121 percentage of the vehicle control group and 61.0781 percentage of the vehicle control group and 66.2487 percentage of the vehicle control group and 67.0185 percentage of the vehicle control group and 69.283 percentage of the vehicle control group and 68.5826 percentage of the vehicle control group and 71.1925 percentage of the vehicle control group. For the setting “P053 100 nM”, the “20:0 Cer level” value was 85.7665 percentage of the vehicle control group and 109.856 percentage of the vehicle control group and 101.721 percentage of the vehicle control group and 86.1177 percentage of the vehicle control group and 103.673 percentage of the vehicle control group and 96.5034 percentage of the vehicle control group and 78.6868 percentage of the vehicle control group; the “22:0 Cer level” value is 109.852 percentage of the vehicle control group and 94.2148 percentage of the vehicle control group and 84.7703 percentage of the vehicle control group and 98.1236 percentage of the vehicle control group and 119.57 percentage of the vehicle control group and 118.497 percentage of the vehicle control group and 136.979 percentage of the vehicle control group and 110.794 percentage of the vehicle control group; the “22:0 HexCer level” value is 96.8671 percentage of the vehicle control group and 87.3308 percentage of the vehicle control group and 81.4727 percentage of the vehicle control group and 94.5887 percentage of the vehicle control group and 107.975 percentage of the vehicle control group and 124.49 percentage of the vehicle control group and 104.798 percentage of the vehicle control group and 129.338 percentage of the vehicle control group; the “22:0 SM level” value is 88.1464 percentage of the vehicle control group and 112.339 percentage of the vehicle control group and 83.7907 percentage of the vehicle control group and 79.4494 percentage of the vehicle control group and 115.966 percentage of the vehicle control group and 112.687 percentage of the vehicle control group and 121.861 percentage of the vehicle control group and 131.998 percentage of the vehicle control group. Under “P053 100 nM”, the “22:1 SM level” value was 110.7 percentage of the vehicle control group and 102.614 percentage of the vehicle control group and 109.89 percentage of the vehicle control group and 108.27 percentage of the vehicle control group and 108.462 percentage of the vehicle control group and 113.237 percentage of the vehicle control group and 107.396 percentage of the vehicle control group and 108.45 percentage of the vehicle control group; the “24:0 HexCer level” value was 91.3427 percentage of the vehicle control group and 87.2698 percentage of the vehicle control group and 81.8027 percentage of the vehicle control group and 92.8624 percentage of the vehicle control group and 100.187 percentage of the vehicle control group and 107.186 percentage of the vehicle control group and 106.263 percentage of the vehicle control group and 116.702 percentage of the vehicle control group; the “24:0 SM level” value is 117 percentage of the vehicle control group and 90.9141 percentage of the vehicle control group and 93.8706 percentage of the vehicle control group and 115.93 percentage of the vehicle control group and 114.197 percentage of the vehicle control group and 134.57 percentage of the vehicle control group and 140.981 percentage of the vehicle control group; the “24:1 Cer level” value is 110.817 percentage of the vehicle control group and 85.3956 percentage of the vehicle control group and 97.052 percentage of the vehicle control group and 96.6841 percentage of the vehicle control group and 128.871 percentage of the vehicle control group and 121.829 percentage of the vehicle control group and 142.778 percentage of the vehicle control group and 120.748 percentage of the vehicle control group. In addition, for the setting “P053 100 nM”, the “24:1 HexCer level” value was 91.7407 percentage of the vehicle control group and 95.5309 percentage of the vehicle control group and 96.8003 percentage of the vehicle control group and 101.48 percentage of the vehicle control group and 104.186 percentage of the vehicle control group and 105.129 percentage of the vehicle control group and 100.754 percentage of the vehicle control group and 113.013 percentage of the vehicle control group; the “24:1 SM level” value was 111.218 percentage of the vehicle control group and 94.5875 percentage of the vehicle control group and 99.337 percentage of the vehicle control group and 100.942 percentage of the vehicle control group and 110.843 percentage of the vehicle control group and 105.998 percentage of the vehicle control group and 112.241 percentage of the vehicle control group and 112.423 percentage of the vehicle control group. Under “P053 300 nM”, the “14:0 SM level” value is 100.258 percentage of the vehicle control group and 95.2604 percentage of the vehicle control group and 95.8152 percentage of the vehicle control group and 99.1466 percentage of the vehicle control group and 109.96 percentage of the vehicle control group and 116.62 percentage of the vehicle control group and 129.695 percentage of the vehicle control group; the “16:0 Cer level” value was 91.1433 percentage of the vehicle control group and 77.1433 percentage of the vehicle control group and 90.5634 percentage of the vehicle control group and 83.6347 percentage of the vehicle control group and 92.4764 percentage of the vehicle control group and 98.9865 percentage of the vehicle control group and 90.2518 percentage of the vehicle control group; the “16:0 HexCer level” value was 76.4857 percentage of the vehicle control group and 73.433 percentage of the vehicle control group and 81.5302 percentage of the vehicle control group and 81.9705 percentage of the vehicle control group and 86.9585 percentage of the vehicle control group and 88.1949 percentage of the vehicle control group and 93.4284 percentage of the vehicle control group.
